pEC50: −log10 of the molar value. Structures can show the parent of a compound that is named as a salt. Some results are limits rather than exact numbers.

Consider twelve molecules from patent US8163779B2, “Glucokinase activators” (Takeda San Diego, Inc., priority 2006, dated 2012).

This test concerns the target T1, glucokinase (GK) (Homo sapiens, UniProt P35557).
T1 construct: I.D. No. 1 corresponds to residues 12-465 of glucokinase; made in house; host or cells: E. coli DH10b-T1r
T1 sequence (P35557 with tags, fused parts or gaps isoform P35557-2): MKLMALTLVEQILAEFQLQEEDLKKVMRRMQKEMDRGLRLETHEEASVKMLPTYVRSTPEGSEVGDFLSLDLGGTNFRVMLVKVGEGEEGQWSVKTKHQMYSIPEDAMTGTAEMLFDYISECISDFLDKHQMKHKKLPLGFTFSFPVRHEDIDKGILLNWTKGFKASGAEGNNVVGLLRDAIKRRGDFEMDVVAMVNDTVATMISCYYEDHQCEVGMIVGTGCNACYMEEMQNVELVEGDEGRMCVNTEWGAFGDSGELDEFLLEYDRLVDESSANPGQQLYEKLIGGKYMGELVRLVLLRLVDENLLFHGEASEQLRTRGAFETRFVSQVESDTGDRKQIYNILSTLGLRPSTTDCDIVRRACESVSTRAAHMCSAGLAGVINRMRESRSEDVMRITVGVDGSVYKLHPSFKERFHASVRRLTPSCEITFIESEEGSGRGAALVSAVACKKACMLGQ
Nature of the test: enzymatic glucokinase activity assay (ATP consumption, KinaseGlo luminescence). Particulars: recombinant GK residues 12-465; 5 μM ATP, 5 mM Glucose; Kact = concentration that displays 50% of the maximal increase in GK activity; read-out: pKact. Type of test: biochemical. The essentials: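 Recombinant human glucokinase expressed in E. coli was run in 25 mM Hepes pH 7.2 with 10 mM MgCl2, 1 mM DTT, 5 μM ATP, 5 mM glucose and 2% DMSO for 60 min at room temperature. Remaining ATP was read by KinaseGlo luminescence; pKact came from non-linear curve fits.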

`Cc1cc(S(=O)(=O)C2CC2)cc(=O)n1[C@H](CC1CCOCC1)C(=O)Nc1ncc(Cl)s1` [Example 173, (R)-N-(5-chlorothiazol-2-yl)-2-(4-(cyclopropylsulfonyl)-6-methyl-2-oxopyridin-1(2H)-yl)-3-(tetrahydro-2H-pyran-4-yl)propanamide]: the pEC50 is less than 4.80.

With `COc1ccc2nc(NC(=O)[C@@H](CC3CCOCC3)n3ccc(S(=O)(=O)C4CCCC4)cc3=O)sc2n1` [Example 58, (R)-2-(4-(cyclopentylsulfonyl)-2-oxopyridin-1(2H)-yl)-N-(5-methoxythiazolo[5,4-b]pyridin-2-yl)-3-(tetrahydro-2H-pyran-4-yl)propanamide], the pEC50 was less than 4.80.

As to `Cc1cc(S(=O)(=O)C2CC2)cc(=O)n1[C@@H](CC1CCCC1)C(=O)Nc1cnccn1` [Example 171, (S)-3-cyclopentyl-2-(4-(cyclopropylsulfonyl)-6-methyl-2-oxopyridin-1(2H)-yl)-N-(pyrazin-2-yl)propanamide], the pEC50 is 4.80 to 5.80.

On to `Cc1c(S(=O)(=O)C2CCCC2)cc(=O)n([C@@H](CC2CCOCC2)C(=O)Nc2ncc(F)s2)c1C` [Example 151, (S)-2-(4-(cyclopentylsulfonyl)-5,6-dimethyl-2-oxopyridin-1(2H)-yl)-N-(5-fluorothiazol-2-yl)-3-(tetrahydro-2H-pyran-4-yl)propanamide], for which the pEC50 is more than 5.80.

For `O=C(Nc1ncc(Cl)s1)[C@@H](CC1CCOCC1)n1ccc(S(=O)(=O)C2CC2)cc1=O` [Example 29, (R)-N-(5-chlorothiazol-2-yl)-2-(4-(cyclopropylsulfonyl)-2-oxopyridin-1(2H)-yl)-3-(tetrahydro-2H-pyran-4-yl)propanamide], the pEC50 is less than 4.80.

As to `O=C(Nc1ncc(Cl)s1)[C@@H](CC1CCOCC1)n1ccc(S(=O)(=O)CC(F)(F)F)cc1=O` [Example 148, (R)-N-(5-chlorothiazol-2-yl)-2-(2-oxo-4-(2,2,2-trifluoroethylsulfonyl)pyridin-1(2H)-yl)-3-(tetrahydro-2H-pyran-4-yl)propanamide], the pEC50 was less than 4.80.

For the molecule `O=C(Nc1ncc(CN2CCOCC2)s1)C(CC1CCOCC1)n1ccc(S(=O)(=O)C2CC2)cc1=O` (stereo not drawn) [Example 145, 2-(4-(cyclopropylsulfonyl)-2-oxopyridin-1(2H)-yl)-N-(5-(morpholinomethyl)thiazol-2-yl)-3-(tetrahydro-2H-pyran-4-yl)propanamide], the pEC50 is less than 4.80.

Regarding `Cc1cc(-c2cccc(Cl)c2)cc(=O)n1[C@@H](CC1CCCCC1)C(=O)Nc1nccs1` [Example 92, (S)-2-(4-(3-chlorophenyl)-6-methyl-2-oxopyridin-1(2H)-yl)-3-cyclohexyl-N-(thiazol-2-yl)propanamide], the pEC50 is less than 4.80.

For the molecule `Cc1cc(S(=O)(=O)C2CCCC2)cc(=O)n1C(CC1CCCCC1)C(=O)Nc1ccc(C(N)=O)cn1` (stereo not drawn) [Example 6, 6-(3-cyclohexyl-2-(4-(cyclopentylsulfonyl)-6-methyl-2-oxopyridin-1(2H)-yl)propanamido)nicotinamide trifluoroacetic acid salt], the pEC50 is more than 5.80.

`Cc1cc(S(=O)(=O)Cc2ccco2)cc(=O)n1[C@@H](CC1CCOCC1)C(=O)Nc1ncc(Cl)s1` [Example 141, (S)-N-(5-chlorothiazol-2-yl)-2-(4-(furan-2-ylmethylsulfonyl)-6-methyl-2-oxopyridin-1(2H)-yl)-3-(tetrahydro-2H-pyran-4-yl)propanamide]: the pEC50 is more than 5.80.

With `O=C(Nc1ccc(Cl)cn1)[C@H](CC1CCOCC1)n1ccc(S(=O)(=O)C2CCCC2)cc1=O` [Example 42, (S)-N-(5-chloropyridin-2-yl)-2-(4-(cyclopentylsulfonyl)-2-oxopyridin-1(2H)-yl)-3-(tetrahydro-2H-pyran-4-yl)propanamide], the pEC50 was more than 5.80.

For `Cc1cc(-c2cccc(NS(C)(=O)=O)c2)cc(=O)n1[C@@H](CC1CCCCC1)C(=O)Nc1nccs1` [Example 112, (S)-3-cyclohexyl-2-(6-methyl-4-(3-(methylsulfonamido)phenyl)-2-oxopyridin-1(2H)-yl)-N-(thiazol-2-yl)propanamide], the pEC50 was less than 4.80.
